Literature values, collected in patent US9394312B1, “Ibrutinib prodrugs, pharmaceutical compositions thereof, and methods of use” (priority 2015, dated 2016).

Conditions: humans, combined with a meal versus fasted

C=CC(=O)N1CCC[C@@H](n2nc(-c3ccc(Oc4ccccc4)cc3)c3c(N)ncnc32)C1 [ibrutinib]
change of absolute bioavailability when combined with a meal: doubled
